Experimental data: patent US20050192279A1, “Pyridazinones as antagonists of alpha4 integrins” (priority 2004, published 2005)

Assays:
circulating leukocytes = test: In Vivo Model for Leukocytosis; set-up: species or system Balb/c mice; details: bled 1-1.5 h after administration
Text: In Vivo Model for Leukocytosis
Leukocytosis is the increase in circulating white blood cells (leukocytes). This can be brought about by preventing leukocyte binding to counter-receptor adhesion molecules expressed on high endothelial venules. This cell adhesion occurs between immunoglobulin superfamily molecules and integrins. Relevant examples of these paired interactions include […] Adhesion Molecule-1 and AlphaL Beta2 integrin, Vascular Cell Adhesion Molecule-1 and α4β1 integrin, and Mucosal Addressin Cell Adhesion Molecule-1 and α4β7 integrin, respectively.
In this model, a compound that antagonizes these leukocyte-endothelial interactions will cause an increase in circulating leukocytes, defined as leukocytosis, as measured at 1-1.5 h post-administration. This leukocytosis is indicative that normal lymphocyte or leukocyte emigration from the peripheral circulation was prevented. Similar emigration of cells out of the circulation into inflamed tissues is responsible for the progression and maintainance of the inflammatory state. Leukocytosis is an indication that lymphocyte and leukocyte extravasation is prevented, and is predictive of general anti-inflammatory activity.
One week prior to being tested, 7-10 week old female Balb/c mice, n=8 per group, were bled and randomized according to leukocyte counts. One week later, the mice were adminstered test compound orally or subcutaneously and then bled 1-1.5 h after drug administration, approximately 1 h after the peak blood concentration of the compound occurred. Whole blood, 250-350 microliters, was collected from each mouse into potassium-EDTA serum collection tubes (Becton-Dickenson) and mixed to prevent clotting.
Cell counts and differential counts on the whole blood preparation were performed using an Advia 120 Hematology System (Bayer Diagnostics). Cell counts as total leukocytes and as total lympohcytes were made and compared to counts made from mice dosed with vehicle only. Data were reported as percent of vehicle control for lymphocyte counts and total leukocyte counts.
Statistical analyses were performed using ANOVA with Dunnet's multiple comparison test.

[1] = test system: eosinophil peroxidase levels in ear punches; test: PMA-Induced Inflammation in Mouse Ear Skin and Measurement of Eosinophil Peroxidase; assay type: in vivo, BALB/C mice; details: total dose 40 mg/kg po bid; ear punches 24 h after PMA
Method: Phorbol 12-Myristate 13-Acetate (PMA)-Induced Inflammation in Mouse Ear Skin and Measurement of Eosinophil Peroxidase
Phorbol 12-myristate 13-acetate (PMA) when applied to skin, generates a vigorous recruitment of immune cells to the site of application. Over a 24 hour period, there is accumulation of fluid and cells to the inflamed site, and thus is a general indicator of an inflammatory response. Among the recruited cells are eosinophils and neutrophils. Eosinophils can migrate into an inflamed or infected tissue via alpha 4 beta 1 integrin interactions with vascular cell adesion molecule-1 (VCAM-1) counter-receptors on vascular endothelial cells, and via alpha 4 beta 7 integrin to mucosal addressin cellular adhesion molecule on vascular endothelial cells in the gastrointestinal tract and mesenteric system. The recruited esoinophils can be quantified by measuring the presence of eosinophil peroxidase in a sample of the homogenized tissue.
Female BALB/C mice are ordered at 6 weeks of age and 16-18 grams from Charles River were used between 6-10 weeks of age. The animals were randomly assigned to groups of 10 (5/box) and housed in groups in plastic cages in a room with 12 h light-dark cycle and controlled temperature and humidity. They received food and water ad libitum.
Phorbol 12-myristate 13-acetate (PMA) was dissolved as 5 mg per mL stock in dimethyl sulfoxide (DMSO) and stored frozen as 20 microliter aliquots. For application to mouse ears, each aliquot was diluted in 2 mL with acetone.
The right ear of each mouse was treated topically with 20 microliters of acetone solution (10 microliters to each side of the ear) containing either 1 microgram of phorbol 12-myristate 13-acetate (PMA) or acetone alone.
Drugs that were tested orally were administered at −1 and +3 hours relative to PMA application.
Mice were sacrificed 24 h after PMA application. The right ear was punched with a 6 mm tissue punch and the tissue was placed in a tube on dry ice and kept frozen until extraction.
One tablet of phosphate citrate buffer was dissolved with urea hydrogen peroxide in 100 ml of water in which one tablet containing 60 mg of o-phenylenediaminedihydrochloride was added.
Ear tissue samples were homogenized in 2 ml of HTAB for 15 sec at speed 5.5 with a Polytron (large head) (Brinkman Instruments). The homogenate was stored at −20° C. until assayed. […]
Samples were typically tested at either a 1:2 or 1:4 dilution made with HTAB. […] Absorbance was read at 490 nm for the specific with subtraction of a 650 nm noise signal using a Thermomax 96-well spectrophotmetric plate reader (Molecular Devices). […]
The inhibition of PMA-induced ear edema was measured by eosinophil peroxidase levels in ear punches. […]

## COc1cnn(C)c(=O)c1-c1ccc(C[C@H](NC(=O)c2c(Cl)cccc2Cl)C(=O)O)cc1 [Cpd 17]
Circulating leukocytes; 3 mg/kg sc
  Lymphoycte Counts % of Vehicle Control: 145.3%
  Total Leukocyte Count % of Vehicle Control: 143.3%
Circulating leukocytes; 10 mg/kg sc
  Lymphoycte Counts % of Vehicle Control: 191.7%
  Total Leukocyte Count % of Vehicle Control: 198.7%
Circulating leukocytes; 30 mg/kg sc
  Lymphoycte Counts % of Vehicle Control: 220.2%
  Total Leukocyte Count % of Vehicle Control: 264.5%
[1]
  % Inh. of Eosinophil Peroxidase: 34.9%

## COc1cnn(C)c(=O)c1-c1ccc(C[C@H](NC(=O)[C@@H]2C3CCC(CC3)N2C(=O)CCc2ccccc2)C(=O)O)cc1 [Cpd 89, 3-[4-(5-Methoxy-2-methyl-3-oxo-2,3-dihydro-pyridazin-4-yl)-phenyl]-2(S)-{[2-(3-phenyl-propionyl)-2-aza-bicyclo[2.2.2]octane-3(S)-carbonyl]-amino}-propionic acid]
[1]
  % Inh. of Eosinophil Peroxidase: 43.5%

## COc1cnn(CCO)c(=O)c1-c1ccc(C[C@H](NC(=O)OC(C)(C)C)C(=O)O)cc1 [Cpd 120]
Circulating leukocytes; 3 mg/kg sc
  Lymphoycte Counts % of Vehicle Control: 104.3%
  Total Leukocyte Count % of Vehicle Control: 91.8%
Circulating leukocytes; 10 mg/kg sc
  Lymphoycte Counts % of Vehicle Control: 112.8%
  Total Leukocyte Count % of Vehicle Control: 101.7%
Circulating leukocytes; 30 mg/kg sc
  Lymphoycte Counts % of Vehicle Control: 80.0%
  Total Leukocyte Count % of Vehicle Control: 78.0%

## COC(=O)[C@H](Cc1ccc(-c2c(OC)cnn(C)c2=O)cc1)NC(=O)c1c(Cl)cccc1Cl [Cpd 151]
[1]
  % Inh. of Eosinophil Peroxidase: 26.5%
